# Measured values from patent US20120270819A1, “USE OF COMPOUNDS WITH SGLT-1/SGLT-2 INHIBITOR ACTIVITY FOR PRODUCING MEDICAMENTS FOR TREATMENT OF BONE DISEASE” (SANOFI, priority 2009, published 2012).
# System: female Sprague-Dawley mature and young adult rats
# Assay: Ex vivo peripheral quantitative computed tomography (pQCT) of right femur (metaphysis, diaphysis, length)
# Type: in vivo, rat
# Settings: Mature Adults; for pQCT femur (diaphysis) CSMI / pQCT femur (diaphysis) Cortical Area / pQCT femur (diaphysis) Cortical BMC / pQCT femur (diaphysis) Cortical BMD / pQCT femur (diaphysis) Cortical Thickness / pQCT femur (diaphysis) Endosteal Circumference / pQCT femur (diaphysis) Periosteal Circumference / pQCT femur (diaphysis) Total Area / pQCT femur (diaphysis) Total BMC / pQCT femur (diaphysis) Total BMD / pQCT femur Length / pQCT femur metaphysis C/SC (Cortical/Subcortical) BMC / pQCT femur metaphysis C/SC (Cortical/Subcortical) BMD / pQCT femur metaphysis Total Area / pQCT femur metaphysis Total BMC / pQCT femur metaphysis Total BMD / pQCT femur metaphysis Trabecular BMC / pQCT femur metaphysis Trabecular BMD: mean
# Protocol: The following were evaluated: clinical signs (at least weekly), body weight (weekly), food consumption (weekly), hormones (Days 13 and 27), serum and urinary biochemical markers of bone turnover (Days 13 and 27), serum chemistry (at necropsy), bone densitometry by dual energy X-ray absorptiometry (DXA) and peripheral quantitative computed tomography (pQCT) (Week 2 and 4, as well as ex vivo), macroscopic observations at necropsy, organ weights, histopathology, biomechanical strength testing and femoral length measurements.
# 3.2 Ex Vivo Peripheral Quantitative Computed Tomography (pQCT)
# Peripheral QCT scans were performed ex vivo using an XCT Research SA or SA+ bone scanner with software version 5.50D. Scans were obtained for the right femur, L3 and L4 lumbar vertebra for all animals euthanized at the end of the treatment period as well as two found dead animals. These two animals were scanned twice due to technical oversight, however only the first scans obtained were reported and the second scans were kept with the study file, this had no impact on the study as both scans were considered equivalent.
# For the femurs, the scanned site was at the expected 3-point bending fracture site (diaphysis). This site was analyzed using Cortmode 2 for cortical bone measurements only (Table 5). An additional slice was obtained in the metaphysis. The metaphysis scan was not performed for the femur of three animals due to condyles detachment from the femur during trimming.
# The femoral length was measured as part of the ex vivo pQCT scanning procedures and was reported for the right femur of all animals with the exception of 3 animas due to damaged femoral condyles.
# All analyses were performed using the LOOP option of the analysis software. All other data generated as a result of the LOOP option were retained with the raw data but not reported. The most appropriate analysis mode for the femur and the lumbar vertebrae was used and documented in the raw data and the analysis details are presented in Table 6. All scan analysis data was retained and re-analyses documented.
smiles,measurement,setting,value
COc1ccc(Cc2c(OC3OC(CO)C(F)C(O)C3O)n[nH]c2C(F)(F)F)cc1 (stereo not drawn) [Example 5 of formula II],"pQCT femur (diaphysis) CSMI, percent difference from Vehicle Control",10 mg/kg/day,5.7%
same,"pQCT femur (diaphysis) Cortical Area, percent difference from Vehicle Control",10 mg/kg/day,2.3%
same,"pQCT femur (diaphysis) Cortical BMC, percent difference from Vehicle Control",10 mg/kg/day,2.7%
same,"pQCT femur (diaphysis) Cortical BMD, percent difference from Vehicle Control",10 mg/kg/day,0.5%
same,"pQCT femur (diaphysis) Cortical Thickness, percent difference from Vehicle Control",10 mg/kg/day,0.6%
same,"pQCT femur (diaphysis) Endosteal Circumference, percent difference from Vehicle Control",10 mg/kg/day,2.3%
same,"pQCT femur (diaphysis) Periosteal Circumference, percent difference from Vehicle Control",10 mg/kg/day,1.0%
same,"pQCT femur (diaphysis) Total Area, percent difference from Vehicle Control",10 mg/kg/day,3.1%
same,"pQCT femur (diaphysis) Total BMC, percent difference from Vehicle Control",10 mg/kg/day,3.0%
same,"pQCT femur (diaphysis) Total BMD, percent difference from Vehicle Control",10 mg/kg/day,0.1%
same,"pQCT femur Length, percent difference from Vehicle Control",10 mg/kg/day,−0.4%
same,"pQCT femur metaphysis C/SC BMC, percent difference from Vehicle Control",10 mg/kg/day,6.2%
same,"pQCT femur metaphysis C/SC BMD, percent difference from Vehicle Control",10 mg/kg/day,2.0%
same,"pQCT femur metaphysis Total Area, percent difference from Vehicle Control",10 mg/kg/day,4.4%
same,"pQCT femur metaphysis Total BMC, percent difference from Vehicle Control",10 mg/kg/day,7.8%
same,"pQCT femur metaphysis Total BMD, percent difference from Vehicle Control",10 mg/kg/day,3.5%
same,"pQCT femur metaphysis Trabecular BMC, percent difference from Vehicle Control",10 mg/kg/day,14.7%
same,"pQCT femur metaphysis Trabecular BMD, percent difference from Vehicle Control",10 mg/kg/day,9.9%
same,pQCT femur (diaphysis) CSMI,10 mg/kg/day,5.0 mm^4
same,pQCT femur (diaphysis) Cortical Area,10 mg/kg/day,6.5 mm^2
same,pQCT femur (diaphysis) Cortical BMC,10 mg/kg/day,8.5 mg/mm
same,pQCT femur (diaphysis) Cortical BMD,10 mg/kg/day,1312.6 mg/cm^3
same,pQCT femur (diaphysis) Cortical Thickness,10 mg/kg/day,0.76 mm
same,pQCT femur (diaphysis) Endosteal Circumference,10 mg/kg/day,6.2 mm
same,pQCT femur (diaphysis) Periosteal Circumference,10 mg/kg/day,10.8 mm
same,pQCT femur (diaphysis) Total Area,10 mg/kg/day,9.6 mm^2
same,pQCT femur (diaphysis) Total BMC,10 mg/kg/day,9.1 mg/mm
same,pQCT femur (diaphysis) Total BMD,10 mg/kg/day,955.6 mg/cm^3
same,pQCT femur Length,10 mg/kg/day,37.0 mm
same,pQCT femur metaphysis C/SC (Cortical/Subcortical) BMC,10 mg/kg/day,10.1 mg/mm
same,pQCT femur metaphysis C/SC (Cortical/Subcortical) BMD,10 mg/kg/day,1054.0 mg/cm^3
same,pQCT femur metaphysis Total Area,10 mg/kg/day,16.0 mm^2
same,pQCT femur metaphysis Total BMC,10 mg/kg/day,12.6 mg/mm
same,pQCT femur metaphysis Total BMD,10 mg/kg/day,791.1 mg/cm^3
same,pQCT femur metaphysis Trabecular BMC,10 mg/kg/day,2.5 mg/mm
same,pQCT femur metaphysis Trabecular BMD,10 mg/kg/day,396.9 mg/cm^3
same,"pQCT femur (diaphysis) CSMI, percent difference from Vehicle Control",50 mg/kg/day,−3.0%
same,"pQCT femur (diaphysis) Cortical Area, percent difference from Vehicle Control",50 mg/kg/day,0.2%
same,"pQCT femur (diaphysis) Cortical BMC, percent difference from Vehicle Control",50 mg/kg/day,1.2%
same,"pQCT femur (diaphysis) Cortical BMD, percent difference from Vehicle Control",50 mg/kg/day,1.0%
same,"pQCT femur (diaphysis) Cortical Thickness, percent difference from Vehicle Control",50 mg/kg/day,3.5%
same,"pQCT femur (diaphysis) Endosteal Circumference, percent difference from Vehicle Control",50 mg/kg/day,−5.6%
same,"pQCT femur (diaphysis) Periosteal Circumference, percent difference from Vehicle Control",50 mg/kg/day,−2.1%
same,"pQCT femur (diaphysis) Total Area, percent difference from Vehicle Control",50 mg/kg/day,−3.4%
same,"pQCT femur (diaphysis) Total BMC, percent difference from Vehicle Control",50 mg/kg/day,0.0%
same,"pQCT femur (diaphysis) Total BMD, percent difference from Vehicle Control",50 mg/kg/day,3.5%
same,"pQCT femur Length, percent difference from Vehicle Control",50 mg/kg/day,−0.4%
same,"pQCT femur metaphysis C/SC BMC, percent difference from Vehicle Control",50 mg/kg/day,4.0%
same,"pQCT femur metaphysis C/SC BMD, percent difference from Vehicle Control",50 mg/kg/day,7.0%
same,"pQCT femur metaphysis Total Area, percent difference from Vehicle Control",50 mg/kg/day,−2.7%
same,"pQCT femur metaphysis Total BMC, percent difference from Vehicle Control",50 mg/kg/day,5.1%
same,"pQCT femur metaphysis Total BMD, percent difference from Vehicle Control",50 mg/kg/day,8.0%
same,"pQCT femur metaphysis Trabecular BMC, percent difference from Vehicle Control",50 mg/kg/day,9.7%
same,"pQCT femur metaphysis Trabecular BMD, percent difference from Vehicle Control",50 mg/kg/day,12.3%
same,pQCT femur (diaphysis) CSMI,50 mg/kg/day,4.6 mm^4
same,pQCT femur (diaphysis) Cortical Area,50 mg/kg/day,6.4 mm^2
same,pQCT femur (diaphysis) Cortical BMC,50 mg/kg/day,8.4 mg/mm
same,pQCT femur (diaphysis) Cortical BMD,50 mg/kg/day,1319.4 mg/cm^3
same,pQCT femur (diaphysis) Cortical Thickness,50 mg/kg/day,0.78 mm
same,pQCT femur (diaphysis) Endosteal Circumference,50 mg/kg/day,5.7 mm
same,pQCT femur (diaphysis) Periosteal Circumference,50 mg/kg/day,10.4 mm
same,pQCT femur (diaphysis) Total Area,50 mg/kg/day,9.0 mm^2
same,pQCT femur (diaphysis) Total BMC,50 mg/kg/day,8.8 mg/mm
same,pQCT femur (diaphysis) Total BMD,50 mg/kg/day,988.0 mg/cm^3
same,pQCT femur Length,50 mg/kg/day,37.0 mm
same,pQCT femur metaphysis C/SC (Cortical/Subcortical) BMC,50 mg/kg/day,9.9 mg/mm
same,pQCT femur metaphysis C/SC (Cortical/Subcortical) BMD,50 mg/kg/day,1105.5 mg/cm^3
same,pQCT femur metaphysis Total Area,50 mg/kg/day,14.9 mm^2
same,pQCT femur metaphysis Total BMC,50 mg/kg/day,12.3 mg/mm
same,pQCT femur metaphysis Total BMD,50 mg/kg/day,825.3 mg/cm^3
same,pQCT femur metaphysis Trabecular BMC,50 mg/kg/day,2.4 mg/mm
same,pQCT femur metaphysis Trabecular BMD,50 mg/kg/day,405.3 mg/cm^3
